Data set [1] in a line: Isoelectric point / maximum stability pH. Type of data set: physicochemical. The method, then: The pH of the partially concentrated extract of Example 1, which was an aqueous extract, was adjusted to pH 4.0 (+/−0.5) by adding 2 M phosphoric acid and centrifuged for 15 minutes at 3000 g to remove any solid precipitate. The pH of 4 corresponds to the isoelectric point of psilocybin, and psilocin's polarity is such that it is partitioned onto the resin, thus allowing effective binding of the psychoactive alkaloids psilocybin and psilocin to the macroporous resin. Norbaeocystin and baeocystin are phosphorylated and behave in the same way as psilocybin. The supernatant obtained was loaded onto a column of Amberlite® XAD4, a non-ionic macroporous resin (50.34 g of dry resin) at a flow rate of 2 bed volumes per hour, to allow components in the supernatant to be adsorbed onto the macroporous resin. After all 2.5 L of the extract was loaded onto the column of macroporous resin, the column was washed in a single pass with 5 bed volumes of reverse osmosis water at room temperature. This was followed by elution with 5 bed volumes of 5% ethanol (by weight), again at room temperature. Finally, the column was washed in a single pass with 5 bed volumes of 100% ethanol. The elution was performed at room temperature. Each of these three fractions was collected separately. The particular order for the washing steps and the elution was selected to be in the order of the polarity of the solvents. […]

The conditions of data set [2]: cited from earlier work.
The nature of data set [3]: Oxidation (decay) of psilocin when exposed to air, own data.

Each structure is given as a SMILES string. Where two headings read alike, the source gives them in different places.

`CN(C)CCc1c[nH]c2cccc(O)c12` [Psilocin, psilocin]: in data set [1], the “maximum stability pH” value was found to be 4. Further, the solubility entry in data set [2] (in acetone) was “not soluble”; in data set [2] (in ethanol), “not soluble”; in data set [2] (in isopropanol), “not soluble”; in data set [2] (in methanol), “soluble”; in data set [2] (in water), “soluble”. For the same compound, the “decay (oxidation of psilocin)” value was 40-60% in data set [3] (at 20 hours when shielded from light); 25% in data set [3] (moist and/or high light environment, after 5 hours); “about 10%” in data set [3] (moist and/or high light environment, within 30 minutes).

For the compound `CN(C)CCc1c[nH]c2cccc(OP(=O)(O)O)c12` [Psilocybin, psilocybin], the solubility entry in data set [2] (in acetone) is recorded as “not soluble”; in data set [2] (in ethanol), “not soluble”; in data set [2] (in isopropanol), “not soluble”; in data set [2] (in methanol), “soluble”; in data set [2] (in water) it was “soluble”.
